From paper PMC2680243 (Cancer research, 2008)

Molecular target: T1, Cdc25A (Homo sapiens, UniProt P30304)
T1 sequence (P30304 1-524): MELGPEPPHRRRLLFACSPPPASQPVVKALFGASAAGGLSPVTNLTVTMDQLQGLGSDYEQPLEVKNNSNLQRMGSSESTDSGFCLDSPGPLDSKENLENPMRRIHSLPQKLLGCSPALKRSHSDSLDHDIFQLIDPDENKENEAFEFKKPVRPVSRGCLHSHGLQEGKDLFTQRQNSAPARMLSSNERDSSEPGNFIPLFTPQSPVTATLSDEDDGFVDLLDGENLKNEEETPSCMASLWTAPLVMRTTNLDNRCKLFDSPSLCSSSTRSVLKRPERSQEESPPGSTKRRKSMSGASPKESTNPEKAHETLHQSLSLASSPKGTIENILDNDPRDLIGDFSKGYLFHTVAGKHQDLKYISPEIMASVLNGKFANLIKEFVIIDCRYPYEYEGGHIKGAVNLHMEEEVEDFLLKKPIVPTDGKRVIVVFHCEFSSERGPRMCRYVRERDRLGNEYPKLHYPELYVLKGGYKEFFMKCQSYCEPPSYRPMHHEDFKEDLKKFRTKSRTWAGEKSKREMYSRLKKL
Assay: OMFP phosphatase assay, […] min pretreatment
Assay type: biochemical

Compound: CCOC(=O)[C@@H](N)CSN=O [SNCEE, S-nitrosocysteine ethyl ester]
- IC50: 22.5 ± 6.2 µM
